Source: patent publication US11084795B2, “CFTR regulators and methods of use thereof” (The Regents of the University of California, priority 2015, dated 2021)

Assays:
[1] = test system: CFTR at the ocular surface; test: Ocular surface potential difference (PD) in living mice; format: in vivo, mouse; settings: wild-type mice, 1-10 μM
Procedure: Open-circuit transepithelial PD were measured continuously in anesthetized mice in response to serial perfusions of different solutions over the ocular surface, as described (21). Mice were anesthetized with Avertin (2,2,2-tribromoethanol, 125 mg/kg intraperitoneal, Sigma-Aldrich, St. Louis, Mo., USA), and core temperature was maintained at 37° C. using a heating pad. Eyes were oriented with the cornea and conjunctiva facing upward and exposed by retracting the eyelid with cross-action forceps. Solutions were isosmolar (320±10 mOsM; compositions provided in ref. 21) and contained 10μ[…] indomethacin to prevent CFTR activation by prostaglandins. The ocular surface was perfused at 6 mL/min through plastic tubing using a multireservoir gravity pinch-valve system (ALA Scientific, Westbury, N.Y., USA) and variable-flow peristaltic pump (medium flow model; Fisher Scientific, Fair Lawn, N.J., USA). A probe catheter was fixed 1 mm above the cornea using a micropositioner and a suction cannula was positioned 3 mm from the orbit. The measuring electrode was in contact to the perfusion catheter and connected to a high-impedance voltmeter (IsoMilivolt Meter; WPI). The reference electrode was grounded via a winged 21-gauge needle filled with isosmolar saline, and inserted subcutaneously in the abdomen. Measuring and reference electrodes consisted of Ag/AgCl with 3 M KCl agar bridges.
An open-circuit potential difference (PD) method developed in our lab was used to evaluate compound activity at the ocular surface in vivo, as depicted in FIG. 3A (21). Cl^− channel function was quantified by measuring PD during continuous perfusion of the ocular surface with a series of solutions that imposed a transepithelial Cl^− gradient and contained various channel agonists and/or inhibitors. The ocular surface was first perfused with isosmolar saline to record the baseline PD. Amiloride was then added to the perfusate, followed by exchange to a low Cl^− solution in which Cl^− with an impermeant anion, gluconate. These maneuvers allow for direct visualization of CFTR activation in response to addition of candidate CFTR activators.
Ocular surface potential difference measurements. Open-circuit transepithelial PD were measured continuously in anesthetized mice in response to serial perfusions of different solutions over the ocular surface, as described (21). Mice were anesthetized with Avertin (2,2,2-tribromoethanol, 125 mg/kg intraperitoneal, Sigma-Aldrich, St. Louis, Mo., USA), and core temperature was maintained at 37° C. using a heating pad. Eyes were oriented with the cornea and conjunctiva facing upward and exposed by retracting the eyelid with cross-action forceps. […]

[2] = test system: tear fluid secretion; format: in vivo, mouse; settings: wild-type mice; B074 100 μM, J027 and K089 50 μM, VX-770 10 μM, cholera toxin 0.1 μg/mL, forskolin 20 μM, IBMX 250 μM
[3] = Compound accumulation in systemic tissues after 14 days topical dosing; format: in vivo, mouse; settings: two weeks of three times per day topical dosing
[4] = test system: C3H/HeJ mice; test: Genetic mouse model of chronic constipation (C3H/HeJ); format: in vivo
Procedure: The efficacy of orally administered CFTRact-J027 (10 mg/kg) was also tested in a genetically constipated mouse strain (15) (C3H/HeJ, age 8-11 weeks) and their wildtype counterparts (C3H/HeOuJ, age 8-11 weeks). Mice were placed in metabolic cages after CFTRact-J027 or vehicle administration at zero time and stool was collected for 4 h. Stool weight, pellet number and water content were determined as described above. Whole-gut transit time was measured to assess gut motility, in which mice treated with CFTRact-J027 (10 mg/kg, ip) or vehicle at zero time were given with 100 μL blue marker (5% Evans blue, 5% gum Arabic) orally. The time of blue dye appearance in stool was determined. All experiments in C3H/HeJ and C3H/HeOuJ mice were done in paired animals to minimize variability.

[5] = test system: scopolamine-treated mice; test: Scopolamine-induced mouse model of acute constipation; format: in vivo
Procedure: Control mice were treated with vehicle only.

[6] = test system: Cl− secretion in mouse colon; test: Short-circuit current in freshly isolated mouse colon; settings: read-out: EC50 for increase in short-circuit current in mouse colon
Description: Short-circuit current measurement.

[7] = Stability in simulated gastric fluid (pH 2); format: physicochemical; settings: 10 μM, pH 2, 37° C., 3 h
Procedure: To study gastric acid stability CFTRact-J027 (10 μM) was dissolved in simulated gastric fluid (0.2 NaCl, 0.7% HCl, pH 2) and incubated for 3 h at 37° C. To study in vitro metabolic stability CFTRact-J027 (5 μM) was incubated for specified times at 37° C. with human liver microsomes (1 mg protein/ml; Sigma-Aldrich) in potassium phosphate buffer (100 mM) containing 1 mM NADPH. After specified incubation periods the mixtures were chilled on ice, and 0.5 ml of ice-cold ethyl acetate was added. Samples were centrifuged for 15 min at 3000 rpm, the supernatants evaporated to dryness, and the residues were dissolved in 100 μL mobile phase (acetonitrile:water, 3:1) and assayed by liquid chromatography mass spectrometry (LC/MS). The solvent system consisted of a linear gradient from 5 to 95% acetonitrile over 16 min (0.2 ml/min flow). Mass spectra were acquired on a mass spectrometer (Waters 2695 and Micromass ZQ, Milford, Mass.) using electrospray (+) ionization, mass ranging from 100 to 1500 Da, cone voltage 40 V.

## Nc1ccc([N+](=O)[O-])cc1-c1nc2ccccc2n(Cc2ccccc2)c1=O [CFTRact-J027, 3-(2-amino-5-nitrophenyl)-1-benzylquinoxalin-2(1H)-one]
[1]
  change in ocular surface PD: large hyperpolarizations
[2]
  tear fluid secretion after single topical dose: increased tear fluid secretion by approximately two-fold for at least four hours
[3]
  amount in mouse blood, brain, liver and kidney (limit of detection): < 700 fmol
[4]; 10 mg/kg ip
  whole-gut transit time in C3H/HeJ mice: normalized the increased whole-gut transit time
[4]; 10 mg/kg oral, C3H/HeJ mice
  4-h stool weight, pellet number and water content: increased 4-h stool weight, pellet number and water content in C3H/HeJ mice to the level of wildtype controls
[4]; C3H/HeOuJ mice
  stool parameters and whole-gut transit time in wildtype control mice: did not affect stool parameters or whole-gut transit time
[5]; 10 mg/kg ip 1 h after loperamide or scopolamine
  efficacy, ip after development of constipation: effective
[5]; 10 mg/kg po
  stool parameters, oral 1 h prior to scopolamine: normalization of stool parameters
[5]; 10 mg/kg po 1 h after loperamide or scopolamine
  efficacy, oral after development of constipation: not effective
[5]; J027 10 mg/kg vs 0.5 mg/kg comparators, oral
  stool output, pellet number and water content compared to lubiprostone and linaclotide: more effective in increasing stool output, pellet number and water content
[6]
  EC50: ~300 nM
[7]
  degradation in simulated gastric fluid: no compound degradation
